Assay results reported in US7902373B2 (Pfizer Inc, priority 2006, dated 2011).

These molecules were tested against human recombinant H-PGDS (Homo sapiens, UniProt O60760) (assay: Fluorescence intensity h-PGDS TBA enzyme assay). Conditions: Examples up to 622 (and 3a, 3b).
Type: biochemical

human recombinant H-PGDS, sequence (O60760 whole entry): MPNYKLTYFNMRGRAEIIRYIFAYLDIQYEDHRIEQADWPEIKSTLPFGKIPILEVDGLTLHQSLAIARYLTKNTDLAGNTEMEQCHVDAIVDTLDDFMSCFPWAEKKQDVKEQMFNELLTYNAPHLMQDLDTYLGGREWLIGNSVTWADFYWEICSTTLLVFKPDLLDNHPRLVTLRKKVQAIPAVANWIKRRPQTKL

IC50 [nM]	SMILES
4.97	O=C(NC1CCN(c2ncccc2C(=O)NC2Cc3ccccc3C2)CC1)c1ccc(-c2cccc(F)c2)nc1 [Example 72, N-(2,3-Dihydro-1H-inden-2-yl)-2-[4-({[6-(3-fluorophenyl)pyridin-3-yl]carbonyl}amino)piperidin-1-yl]nicotinamide]
2.89	COCc1cc(N2CCC(NC(=O)c3ccc(-c4cccc(F)c4)nc3)CC2)nc(-c2csc(C)n2)n1 [Example 73, 6-(3-Fluorophenyl)-N-{1-[6-(methoxymethyl)-2-(2-methyl-13-thiazol-4-yl)pyrimidin-4-yl]piperidin-4-yl}nicotinamide]
0.293	O=C(NC1CCN(c2ncccc2C(=O)c2ccccn2)CC1)c1ccc(-c2cccc(F)c2)nc1 [Example 74, 6-(3-Fluorophenyl)-N-{1-[3-(pyridin-2-ylcarbonyl)pyridin-2-yl]piperidin-4-yl}nicotinamide]
0.314	O=C(NC1CCN(c2ncccc2C(=O)c2nccs2)CC1)c1ccc(-c2cccc(F)c2)nc1 [Example 75, 6-(3-Fluorophenyl)-N-{1-[3-(1,3-thiazol-2-ylcarbonyl)pyridin-2-yl]piperidin-4-yl}nicotinamide]
1.35	CC(=O)c1cc(C#N)c(N2CCC(NC(=O)c3ccc(-c4cccc(F)c4)nc3)CC2)nc1C [Example 76, N-[1-(5-Acetyl-3-cyano-6-methylpyridin-2-yl)piperidin-4-yl]-6-(3-fluorophenyl)nicotinamide]
0.425	N#Cc1ccccc1C(=O)c1cccnc1N1CCC(NC(=O)c2ccc(-c3cccc(F)c3)nc2)CC1 [Example 77, N-{1-[3-(2-Cyanobenzoyl)pyridin-2-yl]piperidin-4-yl}-6-(3-fluorophenyl)nicotinamide]
0.148	COC(=O)c1cnc(N)nc1N1CCC(NC(=O)c2ccc(-c3cccc(F)c3)nc2)CC1 [Example 78, Methyl 2-amino-4-[4-({[6-(3-fluorophenyl)pyridin-3-yl]carbonyl}amino)piperidin-1-yl]pyrimidine-5-carboxylate]
2.28	O=C(NC1CCN(c2nccnc2Cc2ccccc2)CC1)c1ccc(-c2cccc(F)c2)nc1 [Example 79, N-[1-(3-Benzylpyrazin-2-yl)piperidin-4-yl]-6-(3-fluorophenyl)nicotinamide]
0.408	CNC(=O)c1ccc(N2CCC(NC(=O)c3ccc(-c4cccc(F)c4)nc3)CC2)nn1 [Example 80, 6-[4-({[6-(3-Fluorophenyl)pyridin-3-yl]carbonyl}amino)piperidin-1-yl]-N-methylpyridazine-3-carboxamide]
0.947	CCN1CCCC1CNC(=O)c1ccc(N2CCC(NC(=O)c3ccc(-c4cccc(F)c4)nc3)CC2)nn1 (stereo not drawn) [Example 81, N-[(1-Ethylpyrrolidin-2-yl)methyl]-6-[4-({[6-(3-fluorophenyl)pyridin-3-yl]carbonyl}amino)piperidin-1-yl]pyridazine-3-carboxamide]
1.05	CCCN(C)C(=O)c1ccc(N2CCC(NC(=O)c3ccc(-c4cccc(F)c4)nc3)CC2)nn1 [Example 82, 6-[4-({[6-(3-Fluorophenyl)pyridin-3-yl]carbonyl}amino)piperidin-1-yl]-N-methyl-N-propylpyridazine-3-carboxamide]
0.37	CCNC(=O)c1ccc(N2CCC(NC(=O)c3ccc(-c4cccc(F)c4)nc3)CC2)nn1 [Example 83, N-Ethyl-6-[4-({[6-(3-fluorophenyl)pyridin-3-yl]carbonyl}amino)piperidin-1-yl]pyridazine-3-carboxamide]
0.635	O=C(NC1CCN(c2ccc(C(=O)NCCN3CCOCC3)nn2)CC1)c1ccc(-c2cccc(F)c2)nc1 [Example 84, 6-[4-({[6-(3-Fluorophenyl)pyridin-3-yl]carbonyl}amino)piperidin-1-yl]-N-(2-morpholin-4-ylethyl)pyridazine-3-carboxamide]
0.72	O=C(NC1CCN(c2ccc(C(=O)Nc3ccon3)nn2)CC1)c1ccc(-c2cccc(F)c2)nc1 [Example 85, 6-[4-({[6-(3-Fluorophenyl)pyridin-3-yl]carbonyl}amino)piperidin-1-yl]-N-isoxazol-3-ylpyridazine-3-carboxamide]
0.876	Cc1noc(NC(=O)c2ccc(N3CCC(NC(=O)c4ccc(-c5cccc(F)c5)nc4)CC3)nn2)c1C [Example 86, N-(3,4-Dimethylisoxazol-5-yl)-6-[4-({[6-(3-fluorophenyl)pyridin-3-yl]carbonyl}amino)piperidin-1-yl]pyridazine-3-carboxamide]
0.538	CCN1CCN(C(=O)c2ccc(N3CCC(NC(=O)c4ccc(-c5cccc(F)c5)nc4)CC3)nn2)CC1 [Example 87, N-(1-{6-[(4-Ethylpiperazin-1-yl)carbonyl]pyridazin-3-yl}piperidin-4-yl)-6-(3-fluorophenyl)nicotinamide]
0.365	Cc1nn(C)c(C)c1NC(=O)c1ccc(N2CCC(NC(=O)c3ccc(-c4cccc(F)c4)nc3)CC2)nn1 [Example 89, 6-[4-({[6-(3-Fluorophenyl)pyridin-3-yl]carbonyl}amino)piperidin-1-yl]-N-(1,3,5-trimethyl-1H-pyrazol-4-yl)pyridazine-3-carboxamide]
0.305	CCC(CO)n1cnc2c(N3CCC(NC(=O)c4ccc(-c5cccc(F)c5)nc4)CC3)ncnc21 (stereo not drawn) [Example 90, 6-(3-Fluorophenyl)-N-(1-{9-[1-(hydroxymethyl)propyl]-9H-purin-6-yl}piperidin-4-yl)nicotinamide]

IC50 [nM]	SMILES
0.603	COc1ccc2oc(N3CCC(NC(=O)c4ccc(-c5cccc(F)c5)nc4)CC3)nc2c1 [Example 91, 6-(3-Fluorophenyl)-N-[1-(5-methoxy-13-benzoxazol-2-yl)piperidin-4-yl]nicotinamide]
5.15	O=C(NC1CCN(c2nnnn2-c2ccc3c(c2)CCC3)CC1)c1ccc(-c2cccc(F)c2)nc1 [Example 92, N-{1-[1-(2,3-Dihydro-1H-inden-5-yl)-1H-tetrazol 5-yl]piperidin-4-yl}-6-(3-fluorophenyl)nicotinamide]
17.9	C=CCC(C)(C)c1nc2c(N3CCC(NC(=O)c4ccc(-c5cccc(F)c5)nc4)CC3)ncnc2n1C [Example 93, N-{1-[8-(1,1-Dimethylbut-3-en-1-yl)-9-methyl-9H-purin-6-yl]piperidin-4-yl}-6-(3-fluorophenyl)nicotinamide]
0.426	O=C(NC1CCN(c2nnnn2-c2ccccc2F)CC1)c1ccc(-c2cccc(F)c2)nc1 [Example 94, 6-(3-Fluorophenyl)-N-{1-[1-(2-fluorophenyl)-1H-tetrazol-5-yl]piperidin-4-yl}nicotinamide]
0.764	Cc1ccc(-n2nnnc2N2CCC(NC(=O)c3ccc(-c4cccc(F)c4)nc3)CC2)cc1 [Example 95, 6-(3-Fluorophenyl)-N-{1-[1-(4-methylphenyl)-1H-tetrazol-5-yl]piperidin-4-yl}nicotinamide]
1.19	COc1ccccc1Cn1nnnc1N1CCC(NC(=O)c2ccc(-c3cccc(F)c3)nc2)CC1 [Example 96, 6-(3-Fluorophenyl)-N-{1-[1-(2-methoxybenzyl)-1H-tetrazol-5-yl]piperidin-4-yl}nicotinamide]
0.319	CC(C)n1nnnc1N1CCC(NC(=O)c2ccc(-c3cccc(F)c3)nc2)CC1 [Example 97, 6-(3-Fluorophenyl)-N-[1-(1-isopropyl-1H-tetrazol-5-yl)piperidin-4-yl]nicotinamide]
3.7	CCOC(=O)c1cccc(-n2nnnc2N2CCC(NC(=O)c3ccc(-c4cccc(F)c4)nc3)CC2)c1 [Example 98, Ethyl 3-{5-[4-({[6-(3-fluorophenyl)pyridin-3-yl]carbonyl}amino)piperidin-1-yl]-1H-tetrazol-1-yl}benzoate]
2.08	O=C(NC1CCN(c2nnnn2CC2CC2)CC1)c1ccc(-c2cccc(F)c2)nc1 [Example 99, N-{1-[1-(Cyclopropylmethyl)-1H-tetrazol-5-yl]piperidin-4-yl}-6-(3-fluorophenyl)nicotinamide]
1.53	CC(C)OC(=O)Cn1nnnc1N1CCC(NC(=O)c2ccc(-c3cccc(F)c3)nc2)CC1 [Example 100, Isopropyl {5-[4-({[6-(3-fluorophenyl)pyridin-3-yl]carbonyl}amino)piperidin-1-yl]-1H-tetrazol-1-yl}acetate]
1.4	COCC(C)n1nnnc1N1CCC(NC(=O)c2ccc(-c3cccc(F)c3)nc2)CC1 (stereo not drawn) [Example 101, 6-(3-fluorophenyl)-N-{1-[1-(2-methoxy-1-methylethyl)-1H-tetrazol-5-yl]piperidin-4-yl}nicotinamide]
0.943	N#Cc1ccc(Cn2nnnc2N2CCC(NC(=O)c3ccc(-c4cccc(F)c4)nc3)CC2)cc1 [Example 102, N-{1-[1-(4-Cyanobenzyl)-1H-tetrazol-5-yl]piperidin-4-yl}-6-(3-fluorophenyl)nicotinamide]
2.15	CCOc1cccc(-n2nnnc2N2CCC(NC(=O)c3ccc(-c4cccc(F)c4)nc3)CC2)c1 [Example 103, N-{1-[1-(3-Ethoxyphenyl)-1H-tetrazol-5-yl]piperidin-4-yl}-6-(3-fluorophenyl)nicotinamide]
3.18	C[C@H](c1ccccc1)n1nnnc1N1CCC(NC(=O)c2ccc(-c3cccc(F)c3)nc2)CC1 [Example 104, 6-(3-Fluorophenyl)-N-(1-{1-[(1R)-1-phenylethyl]-1H-tetrazol-5-yl}piperidin-4-yl)nicotinamide]
0.873	O=C(NC1CCN(c2ncnc3c2ncn3CC(F)(F)F)CC1)c1ccc(-c2cccc(F)c2)nc1 [Example 106]
0.804	O=C(NC1CCN(c2ncnc3c2ncn3CCN2CCCCC2)CC1)c1ccc(-c2cccc(F)c2)nc1 [Example 107, 6-(3-Fluorophenyl)-N-{1-[9-(2-piperidin-1-ylethyl)-9H-purin-6-yl]piperidin-4-yl}nicotinamide]
1.29	COc1cccc(Cn2nnnc2N2CCC(NC(=O)c3ccc(-c4cccc(F)c4)nc3)CC2)c1 [Example 108, 6-(3-Fluorophenyl)-N-{1-[1-(3-methoxybenzyl)-1H-tetrazol-5-yl}piperidin-4-yl)nicotinamide]
2.74	Cn1c(-c2cccc(O)c2)nc2c(N3CCC(NC(=O)c4ccc(-c5cccc(F)c5)nc4)CC3)ncnc21 [Example 109, 6-(3-Fluorophenyl)-N-{1-[8-(3-hydroxyphenyl)-9-methyl-9H-purin-6-yl]piperidin-4-yl}nicotinamide]
